Measurements from patent US10307404B1, “Ocular formulations for drug-delivery to the posterior segment of the eye” (priority 2013, dated 2019).
Where two headings read alike, the source gives them in different places.

Assay: PK of topical ocular sodium phosphate-based Gel Drop, concentrations 1 hour after last dose
Assay type: in vivo, Dutch-belted rabbits
Conditions: Dutch-belted, rabbit
Description: The Gel Drop of Compound-I was applied to eyes of Dutch-belted rabbits.

Cl.NC(=O)c1c(OCc2c(F)cc(Br)cc2F)nsc1NC(=O)NCCCCN1CCCC1 [Compound-I, 3-[(4-bromo-2,6-difluorophenyl)methoxy]-5-[[[[4-(1-pyrrolidinyl)butyl]amino]carbonyl]amino]-4-isothiazolecarboxamide hydrochloride]
concentration at 1 h (choroid, 2 mg/ml, pH 6, 2 mg/ml pH 6.0 Phos 0.1% BAK 0.005% Gly 2%, 3x/day 5 days, read-out: MEAN [choroid]): 525 nM | concentration at 1 h (choroid, 2 mg/ml, pH 6, 2 mg/ml pH 6 Phos 0.2% BAK 0.005% Gly 2% PS80 1% Osmo 281, 3x/day 5 days, read-out: MEAN [choroid]): 357 nM | concentration at 1 h (choroid, 2 mg/ml, pH 6, 2 mg/ml pH 6.0 Phos 0.2% BAK 0.005% Gly 2%, 3x/day 5 days, read-out: MEAN [choroid]): 532 nM | concentration at 1 h (choroid, 2 mg/ml, pH 6.1, 2 mg/ml pH 6.1 BAK 0.005% Gly 2% Osmo 229, 3x/day 5 days, read-out: MEAN [choroid]): 462 nM | concentration at 1 h (choroid, 2 mg/ml, pH 6.1, 2 mg/ml pH 6.1 Phos 0.05% BAK 0.005% Gly 2% PS80 1% Tylox 0.1% Osmo 239, 3x/day 5 days, read-out: MEAN [choroid]): 660 nM | concentration at 1 h (choroid, 2 mg/ml, pH 6.1, 2 mg/ml pH 6.1 Phos […] Osmo 22, 3x/day 5 days, read-out: MEAN [choroid]): 356 nM | concentration at 1 h (choroid, 2 mg/ml, pH 6.1, 2 mg/ml pH 6.1 Phos […] Osmo 34, 3x/day 4 days, read-out: MEAN [choroid]): 466 nM | concentration at 1 h (choroid, 4 mg/ml, pH 6, 4 mg/ml pH 6.0 Phos 0.2% BAK 0.005% Gly 2%, 3x/day 5 days, read-out: MEAN [choroid]): 596 nM | concentration at 1 h (choroid, 5 mg/ml, pH 6, 5 mg/ml pH 6 Phos 0.2% BAK 0.005% Gly 2% Osmo 273, 3x/day 5 days, read-out: MEAN [choroid]): 1160 nM | concentration at 1 h (choroid, 5 mg/ml, pH 6, 5 mg/ml pH 6 Phos 0.2% BAK 0.005% Gly 2% PS80 1% Polox 0.2% Osmo 288, 3x/day 5 days, read-out: MEAN [choroid]): 612 nM | concentration at 1 h (choroid, 6 mg/ml, pH 5.9, 6 mg/ml pH 5.9 Phos 0.05% BAK 0.005% Gly 2% PS80 1% Tylox 0.1% Polox 0.2% Osmo 270, 3x/day 4 days, read-out: MEAN [choroid]): 22.4 nM | concentration at 1 h (choroid, 6 mg/ml, pH 5.9, 6 mg/ml pH 5.9 Phos […] Osmo 80, 3x/day 4 days, read-out: MEAN [choroid]): 823 nM | concentration at 1 h (choroid, 6 mg/ml, pH 6.1, 6 mg/ml pH 6.1 Phos 0.05% BAK 0.005% Gly 2% PS80 1% Tylox 0.1% Osmo 248, 3x/day 5 days, read-out: MEAN [choroid]): 779 nM | concentration at 1 h (plasma, 1 mg/ml, pH 6, 1 mg/ml pH 6.0 Phos 0.05% BAK 0.005% Gly 2% PS80 0.01% Tylox 0.2%, 3x/day 5 days, read-out: [plasma]): 3.49 nM | concentration at 1 h (plasma, 1 mg/ml, pH 6, 1 mg/ml pH 6 Phos 0.05% BAK 0.005% Gly 2%, 3x/day 5 days, read-out: [plasma]): 4.45 nM | concentration at 1 h (plasma, 1 mg/ml, pH 6, 1 mg/ml pH 6.0 Phos 0.2% BAK 0.005% Gly 2% PS80 1% Tylox 0.2%, 3x/day 5 days, read-out: [plasma]): 2.89 nM | concentration at 1 h (plasma, 1 mg/ml, pH 6, 1 mg/ml pH 6.0 Phos 0.2% BAK 0.005% Gly 2%, 3x/day 5 days, read-out: [plasma]): 3.97 nM | concentration at 1 h (plasma, 2 mg/ml, pH 6, 2 mg/ml pH 6 BAK 0.005% Gly 2% Osmo 232, 3x/day 5 days, read-out: [plasma]): 5.41 nM | concentration at 1 h (plasma, 2 mg/ml, pH 6, 2 mg/ml pH 6.0 Phos 0.02% BAK 0.005% Gly 2% PS80 1% Tylox 0.2%, 3x/day 5 days, read-out: [plasma]): 4.46 nM | concentration at 1 h (plasma, 2 mg/ml, pH 6, 2 mg/ml pH 6 Phos 0.05% BAK 0.005% Gly 2% Osmo 244, 3x/day 5 days, read-out: [plasma]): 5.92 nM | concentration at 1 h (plasma, 2 mg/ml, pH 6, 2 mg/ml pH 6 Phos 0.05% BAK 0.005% Gly 2% PS80 1% Osmo 261, 3x/day 5 days, read-out: [plasma]): 4.15 nM | concentration at 1 h (plasma, 2 mg/ml, pH 6, 2 mg/ml pH 6.0 Phos 0.05% BAK 0.005% Gly 2% PS80 1% Tylox 0.2%, 3x/day 5 days, read-out: [plasma]): 4.36 nM | concentration at 1 h (plasma, 2 mg/ml, pH 6, 2 mg/ml pH 6.0 Phos 0.05% BAK 0.005% Gly 2%, 3x/day 5 days, read-out: [plasma]): 5.79 nM | concentration at 1 h (plasma, 2 mg/ml, pH 6, 2 mg/ml pH 6.0 Phos 0.1% BAK 0.005% Gly 2%, 3x/day 5 days, read-out: [plasma]): 5.71 nM | concentration at 1 h (plasma, 2 mg/ml, pH 6, 2 mg/ml pH 6 Phos 0.2% BAK 0.005% Gly 2% Osmo 257, 3x/day 5 days, read-out: [plasma]): 5.26 nM | concentration at 1 h (plasma, 2 mg/ml, pH 6, 2 mg/ml pH 6 Phos 0.2% BAK 0.005% Gly 2% PS80 1% Osmo 281, 3x/day 5 days, read-out: [plasma]): 4.94 nM | concentration at 1 h (plasma, 2 mg/ml, pH 6, 2 mg/ml pH 6.0 Phos 0.2% BAK 0.005% Gly 2%, 3x/day 5 days, read-out: [plasma]): 4.47 nM | concentration at 1 h (plasma, 2 mg/ml, pH 6.1, 2 mg/ml pH 6.1 Phos […] Osmo 34, 3x/day 4 days, read-out: [plasma]): 4.81 nM | concentration at 1 h (plasma, 4 mg/ml, pH 6, 4 mg/ml pH 6.0 Phos 0.2% BAK 0.005% Gly 2%, 3x/day 5 days, read-out: [plasma]): 5.84 nM | concentration at 1 h (plasma, 4 mg/ml, pH 6, 4 mg/ml pH 6.0 Phos 2% BAK 0.005% Gly 2% PS80 1% Tylox 0.2%, 3x/day 5 days, read-out: [plasma]): 8.06 nM | concentration at 1 h (plasma, 6 mg/ml, pH 5.9, 6 mg/ml pH 5.9 Phos 0.05% BAK 0.005% Gly 2% PS80 1% Tylox 0.1% Polox 0.2% Osmo 270, 3x/day 4 days, read-out: [plasma]): 15.6 nM | concentration at 1 h (plasma, 6 mg/ml, pH 5.9, 6 mg/ml pH 5.9 Phos 0.1% BAK 0.005% Gly 2% Polox 0.2% Osmo 257, 3x/day 4 days, read-out: [plasma]): 8.43 nM | concentration at 1 h (retina, 1 mg/ml, pH 6, 1 mg/ml pH 6.0 Phos 0.05% BAK 0.005% Gly 2% PS80 0.01% Tylox 0.2%, 3x/day 5 days, read-out: Mean [retina]): 46.8 nM | concentration at 1 h (retina, 1 mg/ml, pH 6, 1 mg/ml pH 6.0 Phos 0.2% BAK 0.005% Gly 2% PS80 1% Tylox 0.2%, 3x/day 5 days, read-out: Mean [retina]): 32.7 nM | concentration at 1 h (retina, 1 mg/ml, pH 6, 1 mg/ml pH 6.0 Phos 0.2% BAK 0.005% Gly 2%, 3x/day 5 days, read-out: Mean [retina]): 90.8 nM | concentration at 1 h (retina, 2 mg/ml, pH 6, 2 mg/ml pH 6.0 Phos 0.02% BAK 0.005% Gly 2% PS80 1% Tylox 0.2%, 3x/day 5 days, read-out: Mean [retina]): 92.9 nM | concentration at 1 h (retina, 2 mg/ml, pH 6, 2 mg/ml pH 6 Phos 0.05% BAK 0.005% Gly 2% Osmo 244, 3x/day 5 days, read-out: Mean [retina]): 121 nM | concentration at 1 h (retina, 2 mg/ml, pH 6, 2 mg/ml pH 6 Phos 0.05% BAK 0.005% Gly 2% PS80 1% Osmo 261, 3x/day 5 days, read-out: Mean [retina]): 126 nM
